Assay [1] has as its target T1, Y4R (Homo sapiens, UniProt P50391). Briefly: Aequorin calcium mobilization assay on CHO-hY4-Gqi5-mtAEQ cells. It counts as cell-based. The conditions noted are these: for aequorin assay intrinsic activity α: relative to 1 μM hPP (α = 1.0).
The target in assay [2] is T1, Y4R. In words: β-Arrestin 1 recruitment assay on HEK293T-ARRB1-Y4R cells. As to conditions: for β-arrestin 1 assay intrinsic activity α: relative to 1 μM hPP (α = 1.0). It counts as cell-based.
The target in another assay is T2, Y5R (Homo sapiens, UniProt Q15761).
T2 sequence (Q15761 1-445): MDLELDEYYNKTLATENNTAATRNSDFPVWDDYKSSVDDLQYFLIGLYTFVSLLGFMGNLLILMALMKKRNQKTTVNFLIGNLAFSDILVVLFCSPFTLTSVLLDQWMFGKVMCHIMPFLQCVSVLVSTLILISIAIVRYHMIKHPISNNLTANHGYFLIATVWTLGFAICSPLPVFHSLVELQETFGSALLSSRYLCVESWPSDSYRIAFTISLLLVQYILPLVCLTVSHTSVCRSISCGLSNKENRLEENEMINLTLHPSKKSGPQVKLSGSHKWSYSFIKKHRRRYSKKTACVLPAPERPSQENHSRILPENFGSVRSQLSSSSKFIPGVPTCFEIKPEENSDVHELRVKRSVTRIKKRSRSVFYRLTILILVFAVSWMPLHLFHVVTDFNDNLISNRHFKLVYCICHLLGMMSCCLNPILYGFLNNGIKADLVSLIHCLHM
It counts as binding.

Assay [3] has as its target T1, Y4R. In words: β-Arrestin 2 recruitment assay on HEK293T-ARRB2-Y4R cells. It counts as cell-based. The conditions noted are these: for β-arrestin 2 assay intrinsic activity α: relative to 1 μM hPP (α = 1.0).
The target in another assay is T3, Y1R (Homo sapiens, UniProt P25929).
T3 sequence (P25929 1-384): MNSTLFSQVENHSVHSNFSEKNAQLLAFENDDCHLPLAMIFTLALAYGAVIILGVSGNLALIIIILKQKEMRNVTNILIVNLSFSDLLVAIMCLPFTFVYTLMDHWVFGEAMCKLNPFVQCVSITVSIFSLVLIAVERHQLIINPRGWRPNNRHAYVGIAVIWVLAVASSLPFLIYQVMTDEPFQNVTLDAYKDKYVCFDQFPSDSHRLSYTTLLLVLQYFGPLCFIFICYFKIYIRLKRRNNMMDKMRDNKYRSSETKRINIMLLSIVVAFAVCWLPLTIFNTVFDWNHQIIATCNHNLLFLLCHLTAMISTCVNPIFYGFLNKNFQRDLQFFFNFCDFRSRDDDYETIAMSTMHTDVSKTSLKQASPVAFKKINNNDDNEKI
Briefly: Radioligand competition binding assay at Y1R with 46 using MCF-7-hY1 cells.

A further assay addresses T4, Y2R (Homo sapiens, UniProt P49146).
T4 sequence (P49146 1-381): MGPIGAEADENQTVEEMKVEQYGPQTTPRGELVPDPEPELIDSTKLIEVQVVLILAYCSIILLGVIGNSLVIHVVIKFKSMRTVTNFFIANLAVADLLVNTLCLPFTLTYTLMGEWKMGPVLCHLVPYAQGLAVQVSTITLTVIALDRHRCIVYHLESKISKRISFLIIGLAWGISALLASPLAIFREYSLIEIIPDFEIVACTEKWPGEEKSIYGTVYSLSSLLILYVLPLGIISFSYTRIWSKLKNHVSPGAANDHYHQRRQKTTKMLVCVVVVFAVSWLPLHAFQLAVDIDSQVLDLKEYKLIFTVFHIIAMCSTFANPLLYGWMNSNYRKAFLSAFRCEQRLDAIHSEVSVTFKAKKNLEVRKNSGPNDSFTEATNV
It counts as binding.

Assay [4] has as its target T1, Y4R. In words: biochemical. It counts as binding.

This is an account of results in paper PMC6044894 (ACS Omega, 2017).

Usually EC50 stands for the concentration at which the effect is half-maximal. The Ki is a dissociation constant, usually derived from enzyme kinetics or from competition with a known ligand. High values mean a looser hold on the target, low ones a stronger hold on the target.

Numbered stars: 1 amine (or outer) side, 2 acyl side, 3 side chain; on linkers, the order of the positions; unused ones are H or OH. Bridge positions count the residues as written; N and C are the ends. Peptide text beside a SMILES is read from it. I, II: the chains in the order shown. * marks the point of attachment. Suberoyl = O=C(CCCCCCC(=O)[*:2])[*:1]; Octanoyl = CCCCCCCC(=O)* Some results are limits rather than exact numbers.

T1 sequence (P50391 whole entry): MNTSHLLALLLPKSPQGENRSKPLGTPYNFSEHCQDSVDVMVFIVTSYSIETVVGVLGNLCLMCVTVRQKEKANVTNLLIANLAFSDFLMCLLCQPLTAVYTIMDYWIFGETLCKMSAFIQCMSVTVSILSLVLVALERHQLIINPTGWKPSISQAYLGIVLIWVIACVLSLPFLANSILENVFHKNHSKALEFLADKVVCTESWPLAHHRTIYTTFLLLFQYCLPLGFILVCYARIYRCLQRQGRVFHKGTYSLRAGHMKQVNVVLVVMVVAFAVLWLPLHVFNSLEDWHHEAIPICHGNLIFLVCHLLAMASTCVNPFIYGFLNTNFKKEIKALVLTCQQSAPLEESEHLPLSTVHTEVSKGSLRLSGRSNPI

Take `CC(=O)N[C@@H](CCCNC(=N)N)C(=O)N[C@@H](Cc1ccc(O)cc1)C(=O)N[C@@H](CCCNC(=N)N)C(=O)N[C@@H](CC(C)C)C(=O)N[C@@H](CCCNC(=N)N)C(=O)N[C@@H](Cc1ccc(O)cc1)C(N)=O` [Compound 36, Ac-Arg-Tyr-Arg-Leu-Arg-Tyr-amide Tris(hydrotrifluoroacetate)]: the EC50 was found to be 303 ± 68 nM on Y4R [1], 187 ± 40 nM at Y4R [2] and 140 ± 45 nM on Y4R [3]. For the same molecule, the “aequorin assay intrinsic activity α” value on Y4R [1] was 0.78. Further, on Y4R [2], the “β-arrestin 1 assay intrinsic activity α” value worked out at 0.51. In addition, the values for the Ki on Y5R, at Y1R and at Y2R were over 5000 nM, 1180 ± 380 nM and over 5000 nM, respectively. Also, on Y4R [3], the “β-arrestin 2 assay intrinsic activity α” value worked out at 0.54.
In the case of `CCCCCCCC(=O)N[C@@H](Cc1ccc(O)cc1)C(=O)N[C@@H](CCCNC(=N)N)C(=O)N[C@@H](CC(C)C)C(=O)N[C@@H](CCCNC(=N)N)C(=O)N[C@@H](Cc1ccc(O)cc1)C(N)=O` [Compound 33, Octanoyl-Tyr-Arg-Leu-Arg-Tyr-amide Bis(hydrotrifluoroacetate)] (Octanoyl-YRLRY-NH2), the concentration giving a half-maximal response (EC50) on Y4R [1] was found to be 2050 ± 84 nM; at Y4R [2] it was 2200 ± 130 nM; on Y4R [3], 1790 ± 1070 nM. In addition, the “aequorin assay intrinsic activity α” value on Y4R [1] amounted to 0.44. For the same molecule, on Y4R [2], the “β-arrestin 1 assay intrinsic activity α” value turned out to be 0.56. In addition, the Ki at Y5R was 3440 ± 210 nM; on Y4R [4] it was 56.9 ± 5.3 nM; on Y1R, 589 ± 120 nM; on Y2R, over 5000 nM. The “β-arrestin 2 assay intrinsic activity α” value at Y4R [3] came out at 0.61. In addition, on Y4R [4] (ratio of Ki values), the “increase in Y4R affinity compared to parent compound 3” value was “almost six”.
`CC(C)C[C@H](NC(=O)[C@H](CCCNC(=N)N)NC(=O)[C@H](Cc1ccc(O)cc1)NC(=O)CCCCCCC(=O)N[C@@H](Cc1ccc(O)cc1)C(=O)N[C@@H](CCCNC(=N)N)C(=O)N[C@@H](CC(C)C)C(=O)N[C@@H](CCCNC(=N)N)C(=O)N[C@@H](Cc1ccc(O)cc1)C(N)=O)C(=O)N[C@@H](CCCNC(=N)N)C(=O)N[C@@H](Cc1ccc(O)cc1)C(N)=O` [Compound 2, octanedioyl-bis(Tyr-Arg-Leu-Arg-Tyr-amide), reference compound] (I: YRLRY-NH2 / II: YRLRY-NH2; linker I:N-II:N via Suberoyl): the “aequorin assay intrinsic activity α” value on Y4R [1] is recorded as 0.73.
For “Ac-YRLRY-NH2 [Compound 3, Ac-Tyr-Arg-Leu-Arg-Tyr-amide, reference compound]”, the Ki at Y5R, at Y1R and at Y2R was over 5000 nM in each case.
